Target: T1, His6-HGFR (HGFR cytoplasmic domain) (Homo sapiens, UniProt P08581)
T1 construct: made in house; host or cells: Sf9 insect cells (Spodoptera frugiperda), baculovirus, pFastBac-HT vector
Test: Inhibitory activity against HGFR tyrosine kinase activity (HTRF)
Format: biochemical
Settings: biotin-poly(GT), ATP, 30° C. 10 min
Method in brief: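 Sf9-expressed, Ni-NTA-purified N-terminal His6-tagged HGFR cytoplasmic domain (from Lys974), 30 ng, phosphorylates 250 ng biotin-poly(GT) in Hepes pH 7.4 with MgCl2, MnCl2 and Na3VO4. Reaction started with 4 μM ATP stock, run 10 min at 30° C, stopped with EDTA. Phosphotyrosine is detected by HTRF.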

T1 sequence (P08581 956-1390 limits assumed): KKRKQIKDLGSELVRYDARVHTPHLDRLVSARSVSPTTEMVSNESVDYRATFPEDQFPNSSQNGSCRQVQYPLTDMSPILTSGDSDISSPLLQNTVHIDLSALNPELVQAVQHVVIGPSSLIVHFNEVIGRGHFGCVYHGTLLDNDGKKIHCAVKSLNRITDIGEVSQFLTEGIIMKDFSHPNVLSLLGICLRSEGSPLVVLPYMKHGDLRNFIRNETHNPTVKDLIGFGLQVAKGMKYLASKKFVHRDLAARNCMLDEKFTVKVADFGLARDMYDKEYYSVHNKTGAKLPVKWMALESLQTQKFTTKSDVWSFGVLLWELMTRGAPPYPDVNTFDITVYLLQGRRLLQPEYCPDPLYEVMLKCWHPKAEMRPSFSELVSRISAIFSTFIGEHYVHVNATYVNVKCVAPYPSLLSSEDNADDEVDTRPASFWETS

| IC50 | SMILES |
| --- | --- |
| 83 nM | CN(C)[C@@H]1CCN(C(=O)Nc2cc(Oc3ccc(NC(=O)C4(C(=O)Nc5ccc(F)cc5)CC4)c(F)c3)ccn2)C1 [Example 47, N-(4-{[2-({[(3R)-3-(Dimethylamino)pyrrolidin-1-yl]carbonyl}amino)pyridin-4-yl]oxy}-2-fluorophenyl)-N′-(4-fluorophenyl)cyclopropane-1,1-dicarboxamide] |
| 85 nM | CN(C)[C@H]1CCN(C(=O)Nc2cc(Oc3ccc(NC(=O)C4(C(=O)Nc5ccccc5)CC4)c(F)c3)ccn2)C1 [Example 58, N-(4-{[2-({[(3S)-3-(Dimethylamino)pyrrolidin-1-yl]carbonyl}amino)pyridin-4-yl]oxy}-2-fluorophenyl)-N′-phenylcyclopropane-1,1-dicarboxamide] |
| 15 nM | O=C(Nc1cc(Oc2ccc(NC(=O)C3(C(=O)Nc4ccc(F)cc4)CC3)c(F)c2)ccn1)N1CCC1 [Example 61, N-[4-({2-[(Azetidin-1-ylcarbonyl)amino]pyridin-4-yl]oxy}-2-fluorophenyl]-N′-(4-fluorophenyl)cyclopropane-1,1-dicarboxamide] |
| 23 nM | O=C(Nc1cc(Oc2ccc(NC(=O)C3(C(=O)Nc4ccc(F)cc4)CC3)cc2)ccn1)N1CCOCC1 [Example 68, N-(4-Fluorophenyl)-N′-[4-({2-[(morpholin-4-ylcarbonyl)amino]pyridin-4-yl}oxy)phenyl]cyclopropane-1,1-dicarboxamide] |
| 15 nM | O=C(Nc1cc(Oc2ccc(NC(=O)C3(C(=O)Nc4ccc(F)cc4)CC3)cc2F)ccn1)N1CCC1 [Example 65, N-[4-({2-[(Azetidin-1-ylcarbonyl)amino]pyridin-4-yl}oxy)-3-fluorophenyl]-N′-(4-fluorophenyl)cyclopropane-1,1-dicarboxamide] |
| 20 nM | O=C(Nc1cc(Oc2ccc(NC(=O)C3(C(=O)Nc4ccc(F)cc4)CC3)cc2F)ccn1)N1CCCC1 [Example 66, N-(4-Fluorophenyl)-N′-[3-fluoro-4-({2-[(pyrrolidin-1-ylcarbonyl)amino]pyridin-4-yl}oxy)phenyl]cyclopropane-1,1′-dicarboxamide] |
| 72 nM | CN1CCN(C2CCN(C(=O)Nc3cc(Oc4cc(F)c(NC(=O)C5(C(=O)Nc6ccc(F)cc6)CC5)cc4F)ncn3)CC2)CC1 [Example 101, N-(2,5-Difluoro-4-{[4-({[4-(4-methylpiperazin-1-yl)piperidin-1-yl]carbonyl}amino)pyrimidin-6-yl]oxy}phenyl)-N′-(4-fluorophenyl)cyclopropane-1,1-dicarboxamide] |
| 17 nM | O=C(Nc1cc(Oc2ccc(NC(=O)C3(C(=O)Nc4ccc(F)cc4)CC3)cc2F)ccn1)N1CCOCC1 [Example 67, N-[3-Fluoro-4-({2-[(morpholin-4-ylcarbonyl)amino]pyridin-4-yl}oxy)phenyl]-N′-(4-fluorophenyl)-cyclopropane-1,1-dicarboxamide] |
| 61 nM | CN(C)CC1CN(C(=O)Nc2cc(Oc3ccc(NC(=O)C4(C(=O)Nc5ccc(F)cc5)CC4)c(F)c3F)ccn2)C1 [Example 107, N-[4-({2-[({3-[(Dimethylamino)methyl]azetidine-1-yl}carbonyl)amino]pyridin-4-yl}oxy)-2,3-difluorophenyl]-N′-(4-fluorophenyl)cyclopropane-1,1-dicarboxamide] |
| 14 nM | O=C(Nc1cc(Oc2ccc(NC(=O)C3(C(=O)Nc4ccc(F)cc4)CC3)c(F)c2)ccn1)N1CCOCC1 [Example 63, N-[2-Fluoro-4-({2-[(morpholin-4-ylcarbonyl)amino]pyridin-4-yl}oxy)phenyl]-N′-(4-fluorophenyl)cyclopropane-1,1-dicarboxamide] |
| 58 nM | CN(C)CC1CN(C(=O)Nc2cc(Oc3ccc(NC(=O)C4(C(=O)Nc5ccc(F)cc5)CC4)c(F)c3)ccn2)C1 [Example 77, N-[4-({2-[({3-[(Dimethylamino)methyl]azetidin-1-yl}carbonyl)amino]pyridin-4-yl}oxy)-2-fluorophenyl]-N′-(4-fluorophenyl)cyclopropane-1,1-dicarboxamide] |
| 85 nM | CN1CCC(N(C)C(=O)Nc2cc(Oc3cc(F)c(NC(=O)C4(C(=O)Nc5ccc(F)cc5)CC4)cc3F)ncn2)CC1 [Example 100, N-(2,5-Difluoro-4-{[4-({[methyl(1-methylpiperidin-4-yl)amino]carbonyl}amino)pyrimidin-6-yl]oxy}phenyl)-N′-(4-fluorophenyl)cyclopropane-1,1-dicarboxamide] |
| 71 nM | CN1CCN(C(=O)Nc2cc(Oc3cc(F)c(NC(=O)C4(C(=O)Nc5ccc(F)cc5)CC4)cc3F)ccn2)CC1 [Example 104, N-{2,5-Difluoro-4-[(2-{[(4-methylpiperazin-1-yl)carbonyl]amino}pyridin-4-yl]oxy}phenyl)-N′-(4-fluorophenyl)cyclopropane-1,1-dicarboxamide] |
| 45 nM | CN(C)C1CN(C(=O)Nc2cc(Oc3ccc(NC(=O)C4(C(=O)Nc5ccc(F)cc5)CC4)c(F)c3)ccn2)C1 [Example 76, N-(4-{[2-({[3-(Dimethylamino)azetidin-1-yl]carbonyl}amino)pyridin-4-yl]oxy}-2-fluorophenyl)-N′-(4-fluorophenyl)cyclopropane-1,1-dicarboxamide] |

Second part, the molecule before the results:

| SMILES | IC50 |
| --- | --- |
| O=C(Nc1cc(Oc2ccc(NC(=O)C3(C(=O)Nc4ccc(F)cc4)CC3)cc2F)ncn1)N1CCOCC1 [Example 35, N-[3-Fluoro-4-({6-{(morpholin-4-ylcarbonyl)amino}pyrimidin-4-yl}oxy)phenyl]-N′-(4-fluorophenyl)cyclopropane-1,1-dicarboxamide] | 29 nM |
| CN(C)[C@@H]1CCN(C(=O)Nc2cc(Oc3ccc(NC(=O)C4(C(=O)Nc5ccc(F)cc5)CC4)cc3)ccn2)C1 [Example 42, N-(4-{[2-({[(3R)-3-(Dimethylamino)pyrrolidin-1-yl]carbonyl}amino)pyridin-4-yl]oxy}phenyl)-N′-(4-fluorophenyl)cyclopropane-1,1-dicarboxamide] | 57 nM |
| CN(C)CCN1CCN(C(=O)Nc2cc(Oc3ccc(NC(=O)C4(C(=O)Nc5ccc(F)cc5)CC4)cc3)ccn2)CC1 [Example 30, N-[4-({2-[({4-[2-(Dimethylamino)ethyl]piperazin-1-yl}carbonyl)amino]pyridin-4-yl}oxy)phenyl]-N′-(4-fluorophenyl)cyclopropane-1,1-dicarboxamide] | 44 nM |
| CN(C)CC1CCN(C(=O)Nc2cc(Oc3ccc(NC(=O)C4(C(=O)Nc5ccc(F)cc5)CC4)c(F)c3)ccn2)CC1 [Example 8, N-[4-({2-[({4-[(Dimethylamino)methyl]piperidin-1-yl}carbonyl)amino]pyridin-4-yl}oxy)-2-fluorophenyl]-N′-(4-fluorophenyl)cyclopropane-1,1-dicarboxamide] | 48 nM |
| CN(C)[C@H]1CCN(C(=O)Nc2cc(Oc3ccc(NC(=O)C4(C(=O)Nc5ccc(F)cc5)CC4)cc3F)ccn2)C1 [Example 24, N-(4-{[2-({[(3S)-3-(Dimethylamino)pyrrolidin-1-yl]carbonyl}amino)pyridin-4-yl]oxy}-3-fluorophenyl)-N′-(4-fluorophenyl)cyclopropane-1,1-dicarboxamide] | 48 nM |
| CN1CCC(N2CCN(C(=O)Nc3cc(Oc4ccc(NC(=O)C5(C(=O)Nc6ccc(F)cc6)CC5)cc4F)ccn3)CC2)CC1 [Example 19, N-(3-Fluoro-4-{[2-({[4-(1-methylpiperidin-4-yl)piperazin-1-yl]carbonyl}amino)pyridin-4-yl]oxy}phenyl)-N′-(4-fluorophenyl)cyclopropane-1,1-dicarboxamide] | 61 nM |
| O=C(Nc1cc(Oc2ccc(NC(=O)C3(C(=O)Nc4ccc(F)cc4)CC3)c(F)c2)ccn1)N1CCC(CN2CCC2)CC1 [Example 37, N-(4-{[2-({[4-(Azetidin-1-ylmethyl)piperidin-1-yl]carbonyl}amino)pyridin-4-yl]oxy}-2-fluorophenyl)-N′-(4-fluorophenyl)cyclopropane-1,1-dicarboxamide] | 53 nM |
| CN(C)C1CCN(C(=O)Nc2cc(Oc3ccc(NC(=O)C4(C(=O)Nc5ccc(F)cc5)CC4)cc3F)ccn2)CC1 [Example 23, N-(4-{[2-({[4-(Dimethylamino)piperidin-1-yl]carbonyl}amino)pyridin-4-yl]oxy}-3-fluorophenyl)-N′-(4-fluorophenyl)cyclopropane-1,1-dicarboxamide] | 45 nM |
| CN(C)CCN1CCC(N(C)C(=O)Nc2cc(Oc3ccc(NC(=O)C4(C(=O)Nc5ccc(F)cc5)CC4)c(F)c3)ccn2)CC1 [Example 25, N-(4-{[2-({[{1-[2-(Dimethylamino)ethyl]piperidin-4-yl}(methyl)amino]carbonyl}amino)pyridin-4-yl]oxy}-2-fluorophenyl)-N′-(4-fluorophenyl)cyclopropane-1,1-dicarboxamide] | 85 nM |
| CN1CCN(C2CCN(C(=O)Nc3cc(Oc4ccc(NC(=O)C5(C(=O)Nc6ccc(F)cc6)CC5)cc4)ccn3)CC2)CC1 [Example 32, N-(4-Fluorophenyl)-N′-(4-{[2-({[4-(4-methylpiperazin-1-yl)piperidin-1-yl]carbonyl}amino)pyridin-4-yl]oxy}phenyl)cyclopropane-1,1-dicarboxamide] | 50 nM |
| O=C(Nc1cc(Oc2ccc(NC(=O)C3(C(=O)Nc4ccc(F)cc4)CC3)cc2F)ncn1)N1CCC(N2CCC2)CC1 [Example 34, N-{4-[(6-{[(4-Azetidin-1-ylpiperidin-1-yl)carbonyl]amino}pyrimidin-4-yl)oxy]-3-fluorophenyl}-N′-(4-fluorophenyl)cyclopropane-1,1-dicarboxamide] | 73 nM |
| O=C(Nc1cc(Oc2ccc(NC(=O)C3(C(=O)Nc4ccc(F)cc4)CC3)cc2F)ccn1)N1CCC(CN2CCC2)CC1 [Example 26, N-(4-{[2-({[4-(Azetidin-1-ylmethyl)piperidin-1-yl]carbonyl}amino)pyridin-4-yl]oxy}-3-fluorophenyl)-N′-(4-fluorophenyl)cyclopropane-1,1-dicarboxamide] | 58 nM |
